Measured values published in paper PMC10669474, “An Exploration of Small Molecules That Bind Human Single-Stranded DNA Binding Protein 1” (Biology, 2023).

How the values were obtained:
[1] = tested on: U2OS cells; assay: CellTitre-Glo cytotoxicity assay; type: cell-based, human; conditions: 48 h incubation, 30—0.0492 μM, CTG
Experimental: The osteosarcoma cell line U2OS was purchased from the American Type Culture Collection (ATCC) and seeded at a density of 500 cells/well in a 384-well plate. They were maintained at 37 °C in a humidified atmosphere containing 5% CO2 in Roswell Park Memorial Institute […] (RPMI) medium (ThermoFisher Scientific, Inc., Brisbane, Australia) supplemented with 10% (v/v) heat-inactivated foetal bovine serum (FBS) (ThermoFisher Scientific). A cytotoxicity assay was conducted to test the impact of the three Merck KGaA, Darmstadt, Germany, compounds (MS-ML24, MS-ML25, MS-ML26) on cell viability. Increasing concentrations of each MS-ML compound were added from […] in serial dilutions of 2.5 (n = 4). The cells were incubated with the compound for 48 h before the CellTitre-Glo (CTG) (Promega) assay was performed as per the manufacturer’s instructions. The plate was read on an EnSight Multimode Plate Reader (PerkinElmer, Shelton, CT, USA).

[2] = tested on: E. coli SSB; set-up: method as in PMID 27609050; conditions: ssDNA interaction; cited from earlier work
[3] = target: T1, hSSB1 (Homo sapiens, UniProt Q9BQ15); assay: AlphaLISA Mini Library screen; type: binding; conditions: for inhibition at 10 µM: triplicate
T1 construct: 6xHis (N); made in house; host or cells: E. coli BL21 (DE3*)
T1 sequence (Q9BQ15 whole entry): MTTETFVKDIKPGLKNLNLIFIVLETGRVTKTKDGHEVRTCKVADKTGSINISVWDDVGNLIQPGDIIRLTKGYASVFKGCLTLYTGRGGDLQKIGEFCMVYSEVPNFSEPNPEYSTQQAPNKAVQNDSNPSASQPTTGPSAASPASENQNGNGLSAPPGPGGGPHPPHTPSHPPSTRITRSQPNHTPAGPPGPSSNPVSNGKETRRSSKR
Experimental: In parallel to the rational design of small-molecule inhibitors, we acquired access to the Open Innovation Mini Library of small compounds from Merck KGaA, Darmstadt, Germany. This library consisted of 80 compounds at 10 mM in DMSO that had been investigated against other targets, from receptor blockers to protein inhibitors. The goal of screening this library was to test various scaffolds for their affinity to hSSB1.
Using a FlexDrop iQ, 16 nL of each compound was dispensed onto a white low-volume 384-well microplate (PerkinElmer, Shelton, CT, USA) in triplicate at an assay concentration of 10 μM. In3-PS was used as the positive control binding entity at a concentration of 1 μM. The AlphaLISA assay conditions are described in Section 2.4. The hit cut-off used was an average inhibition of 30% across the three repeats. The plate was read using an EnSight Multimode Plate Reader (PerkinElmer, Shelton, CT, USA) at 10, 60, and 120 min.

[4] = target: T1, hSSB1; assay: AlphaLISA competition dose-response binding assay; conditions: for Kd: as restated in discussion, read-out: affinity to hSSB1 in AlphaLISA binding assays; for binding to hSSB1 in the AlphaLISA: triplicate
Experimental: To analyse the binding of compounds to hSSB1 and design a screening assay, we used Perkin Elmer’s AlphaLISA technology. The full assay design is described in the Supplementary Information. The optimal assay conditions were determined with a series of titration matrices to be 0.5 nM hSSB1, 5 nM In3-PD-biotin, 1 nM anti-hSSB1 antibody, 10 μg/mL SA donor beads, and 5 μg/mL protein G acceptor beads in a 16 μL reaction volume. These were combined in a buffer containing 10 mM Tris (pH 7.5), 100 mM NaCl, 0.1% β-mercaptoethanol, and 0.01% IGEPAL. First, an 8 μL mix of hSSB1, anti-hSSB1 antibody, and acceptor beads was prepared, which was added to the compound of interest and incubated for 1 h. Second, an 8 μL aliquot of a solution containing In3-PD-biotin and SA donor beads was added to the well. This was incubated before imaging with an EnSight Multimode Plate Reader (PerkinElmer, Shelton, CT, USA) at 10, 60, and 120 min. The assay was designed in a competition format so that the Cheng–Prusoff equation was met and the IC50 approximated the Kd.
Dose–response curves were obtained for hit compounds and compared with TDRL-551. The same AlphaLISA competition format was used to determine the IC50/Kd of compounds binding to hSSB1. Each compound was dissolved in DMSO before being dispensed into a white 384-well microplate (PerkinElmer, Shelton, CT, USA) using a FlexDrop iQ. […]
1.1.1 Design of the AlphaLISA screening assay
To test whether the compounds bind to hSSB1 and to design an effective screening assay, we used AlphaLISA technology from Perkin Elmer. This technology involves binding a biotin-labelled control DNA oligonucleotide (btn-In3-PD) to a streptavidin-coated donor (SA-donor) bead. hSSB1 is bound to an anti-hSSB1 sheep antibody as described previously, which binds to Protein G-coated acceptor beads. When hSSB1 and btn-In3-PD bind, they bring the two beads close together, and with excitation at 680 nm by laser irradiation, the phthalocyanine in the donor bead excites ambient oxygen to a reactive form of O2. When this is within 200 nm of a europium-containing acceptor bead (during a binding event), the reactive oxygen is transferred to the thioxene derivative, producing light at 615 nm. Without the acceptor bead, oxygen returns to its ground state. This lends the assay to a competition-based format for high- […]
A titration matrix is required to optimise assay conditions to develop an AlphaLISA assay that accurately acquires results and subsequently follows the Cheng-Prusoff equation to report IC50’s as a molecule Kd. […] This is determined by finding the hook point of signal, which indicates the highest signal before the bead is saturated, after which a decrease in signal is observed. […]

[5] = target: T1, hSSB1; assay: Electrophoretic mobility shift assay (EMSA), competition with Cy5-labelled ssDNA probe; type: binding; conditions: tested from 200 to 0.091 μM
Experimental: These were performed in 10 μL reactions of 10 mM Tris (pH 7.5), 100 mM NaCl, 0.01% IGEPAL, and 1 mM DTT. Two 5 μL solutions were prepared. The first mix contained hSSB1 with the compound of interest, which were incubated together for 10 min before the addition of the probe molecule, Cy5-labelled In3-PS. The combined solution was incubated for 30 min at 37 °C, before loading dye was added and the samples were loaded into 10% polyacrylamide TBE gels. These gels were run for 1.5 h in a cold room at 80 V before being imaged using a ChemiDoc Imaging System (BioRad, Hercules, CA, USA) and quantified using ImageStudio Lite (Version 5.2) software.
The optimal conditions for the EMSAs were established using a titration matrix of hSSB1 and Cy5-labelled In3-PD concentrations. Concentrations of hSSB1 from 1000 to 0.26 nM and Cy5-labelled In3-PD at 1 nM and 5 nM were tested. The final conditions were established as 15 nM hSSB1 and 1.5 nM Cy5-labelled In3-PS, where the In3-PS is 100% bound. The concentrations of the MS-ML compounds of Merck KGaA, Darmstadt, Germany, were tested from 100 to 0.046 μM, and the concentrations of the novel DAZLN compounds were tested from 200 to 0.091 μM.

## CCOc1ccc2cc(C3CC(c4ccc(I)cc4)=NN3C(=O)CCCC(=O)O)c(Cl)nc2c1 (stereo not drawn) [TDRL-551]
[1]
  cytotoxic effect in U2OS cells: no cytotoxic effect

## O=c1c(O)cccc2cc(O)c(O)c(O)c12 [purpurogallin]
[2]
  concentration at which 50% bound: ~ 25 μM

## CCCCCCN(Cc1ccc(C#Cc2ccc(CCCC)cc2)cc1)c1ccc(O)c(C(=O)O)c1 [MS-ML24]
[3]
  inhibition at 10 µM: > 45%
[4]
  Kd: 143 nM

## CCCCCCN(Cc1ccc(C#Cc2ccc(CCCC)cc2)cc1)C(=O)c1ccc(O)c(C(=O)O)c1 [MS-ML25]
[3]
  inhibition at 10 µM: > 45%

## COc1ccc2cc([C@H]3CC(c4cn(C)c5cc(OC)ccc45)=NN3)ccc2c1 [DAZLN-51]
[5]
  binding to hSSB1 / inhibition in the EMSA: no inhibition was observed
[4]
  binding to hSSB1 in the AlphaLISA: no binding

## O=c1cc2oc3cc(O)c(O)cc3c(-c3ccccc3O)c-2cc1O [9-hydroxyphenylfluoron]
[2]
  concentration at which 50% bound: ~ 25 μM

## COc1ccc2cc([C@H]3CC(c4cn(C)c5cc(OC)ccc45)=NN3C(=O)CCCC(=O)NCC(=O)N3CCOCC3)ccc2c1 [DAZLN-56]
[5]
  binding to hSSB1 / inhibition in the EMSA: not reflected in the EMSA
[4]
  binding to hSSB1 in the AlphaLISA: low level of binding

## CCCCCCN(Cc1ccc(C#Cc2ccc(CCCC)cc2)cc1)c1ccc(F)c(C(=O)O)c1 [MS-ML26]
[3]; 10 μM, hit cut-off average inhibition of 30%
  result in initial screen relative to hit threshold: slightly lower than the threshold set for the screen
[4]
  Kd: 198 nM
